Measurements as given in patent publication US20200157092A1, “[1,2,4]-TRIAZOLO [1,5-A]-PYRIMIDINYL DERIVATIVES SUBSTITUTED WITH PIPERIDINE, […] […] OGA INHIBITORS” (priority 2017, published 2020).
pEC50: −log10 of the molar value. Like-named read-outs stand apart in the source and are kept apart here.

Legend:
[1] = target: T1, recombinant human Meningioma Expressed Antigen 5 (MGEA5), also referred to as O-GlcNAcase (OGA) (Homo sapiens, UniProt O60502); experiment: OGA biochemical assay: inhibition of FM-GlcNAc hydrolysis, fluorescence; protocol A (10 nM OGA, 1 h) or protocol B (2 nM OGA, 6 h); settings: for IC50: read-out: Enzymatic hOGA, pIC50 (converted)
T1 construct: Full length OGA enzyme was purchased at OriGene (cat # TP322411); purchased OriGene TP322411
T1 sequence (O60502 1-916): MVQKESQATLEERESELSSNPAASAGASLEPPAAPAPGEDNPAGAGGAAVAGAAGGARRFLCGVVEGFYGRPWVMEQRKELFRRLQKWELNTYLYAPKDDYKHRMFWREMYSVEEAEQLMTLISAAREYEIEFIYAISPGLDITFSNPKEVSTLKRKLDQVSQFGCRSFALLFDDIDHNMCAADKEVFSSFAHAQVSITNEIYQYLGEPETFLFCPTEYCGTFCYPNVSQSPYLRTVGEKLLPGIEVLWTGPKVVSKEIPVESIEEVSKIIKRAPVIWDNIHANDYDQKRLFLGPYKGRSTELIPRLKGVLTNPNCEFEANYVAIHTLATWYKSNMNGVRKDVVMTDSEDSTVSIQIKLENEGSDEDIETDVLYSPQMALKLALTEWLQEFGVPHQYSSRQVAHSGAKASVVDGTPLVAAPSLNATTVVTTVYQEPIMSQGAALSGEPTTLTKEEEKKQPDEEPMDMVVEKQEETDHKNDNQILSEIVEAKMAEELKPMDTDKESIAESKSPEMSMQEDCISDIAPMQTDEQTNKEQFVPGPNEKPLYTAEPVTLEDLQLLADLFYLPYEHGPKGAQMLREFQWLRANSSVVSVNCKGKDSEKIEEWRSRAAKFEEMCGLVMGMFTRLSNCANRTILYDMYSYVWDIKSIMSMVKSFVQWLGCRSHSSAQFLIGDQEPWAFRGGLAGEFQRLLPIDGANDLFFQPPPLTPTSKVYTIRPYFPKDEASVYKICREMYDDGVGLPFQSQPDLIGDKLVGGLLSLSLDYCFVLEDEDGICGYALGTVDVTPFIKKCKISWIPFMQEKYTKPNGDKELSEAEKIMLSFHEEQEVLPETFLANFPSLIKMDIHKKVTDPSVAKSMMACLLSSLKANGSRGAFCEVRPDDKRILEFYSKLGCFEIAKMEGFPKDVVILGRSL
Method: The hydrolysis FM-GlcNAc (Marker Gene technologies, cat # M1485) results in the formation of ß-D-N-glucosamineacetate and fluorescein. The fluorescence of the latter can be measured at excitation wavelength 485 nm and emission wavelength 538 nm. An increase in enzyme activity results in an increase in fluorescence signal. Full length OGA enzyme was purchased at OriGene (cat # TP322411). The enzyme was stored in 25 mM Tris.HCl, pH 7.3, 100 mM glycine, 10% glycerol at −20° C. […] The assay was performed in 200 mM Citrate/phosphate buffer supplemented with 0.005% Tween-20. 35.6 g Na2HPO4 2 H2O (Sigma, # C0759) were dissolved in 1 L water to obtain a 200 mM solution. […] The buffer to stop the reaction consists of a 500 mM Carbonate buffer, pH 11.0. […] OGA was used at a 10 nM (protocol A) or 2 nM (protocol B) concentration and FM-GlcNAc at a 100 uM final concentration. Dilutions were prepared in assay buffer.
Plates were pre-incubated for 60 min at room temperature and then 2 μl FM-GlcNAc substrate mix added. […] Plates were briefly centrifuged for 1 min at 1000 rpm and incubate at room temperature for 1 h (10 nM OGA, protocol A) or 6 h (2 nM OGA, protocol B). To stop the reaction 5 μl STOP buffer were added and plates centrifuge again 1 min at 1000 rpm. Fluorescence was quantified in the Thermo Scientific Fluoroskan Ascent or the PerkinElmer EnVision with excitation wavelength 485 nm and emission wavelength 538 nm.
For analysis a best-fit curve is fitted by a minimum sum of squares method. From this an IC50 value and Hill coefficient was obtained. High control (no inhibitor) and low control (saturating concentrations of standard inhibitor) were used to define the minimum and maximum values.

OGA = target: T2, OGA (Homo sapiens, UniProt O60502); experiment: OGA cellular assay: immunocytochemical detection of O-GlcNAcylated proteins in HEK293 cells inducible for P301L mutant human Tau; type: cell-based; settings: for Emax: HEK293, read-out: Cellular Emax (%)
T2 construct: HEK293 cells inducible for P301L mutant human Tau (isoform 2N4R) were established at Janssen; endogenous in cells; host or cells: HEK293 cells inducible for P301L mutant human Tau (2N4R)
T2 sequence (O60502 1-916): T1 sequence (O60502 1-916)
From the text: HEK293 cells inducible for P301L mutant human Tau (isoform 2N4R) were established at Janssen. Thiamet-G was used for both plate validation (high control) and as reference compound (reference EC50 assay validation). […] Inhibition of OGA will result in an increase of O-GlcNAcylated protein levels resulting in an increased signal in the experiment. […] ICC pictures are imaged with a Perkin Elmer Opera Phenix plate microscope and quantified with the provided software Perkin Elmer Harmony 4.1.
Cells were propagated in DMEM high Glucose (Sigma, # D5796) following standard procedures. […] At the day of compound test medium from assay plates was removed and replenished with 90 μl of fresh Assay Medium. 10 μl of compounds at a 10 fold final concentration were added to the wells. Plates were centrifuged shortly before incubation in the cell incubator for 6 hours. DMSO concentration was set to 0.2%. Medium is discarded by applying vacuum. For staining of cells medium was removed and cells washed once with 100 μl D-PBS (Sigma, # D8537). From next step onwards unless other stated assay volume was always 50 μl and incubation was performed without agitation and at room temperature. […] Before analysis samples were washed 2 times manually for 5 minutes in ICC base buffer.
Imaging is performed using Perkin Elmer Phenix Opera using a water 20× objective and recording 9 fields per well. Intensity readout at 488 nm is used as a measure of O-GlcNAcylation level of total proteins in wells. To assess potential toxicity of compounds nuclei were counted using the Hoechst staining. IC50-values are calculated using parametric non-linear regression model fitting. As a maximum inhibition Thiamet G at a 200 uM concentration is present on each plate. In addition, a concentration response of Thiamet G is calculated on each plate.

[2] = Enzymatic protocol A (10 nM OGA, 1 h)
[3] = Enzymatic protocol B (2 nM OGA, 6 h)

SMILES | Emax [1, 2] [%] | IC50 [1, 2] [nM] | pEC50 (OGA) | Emax (OGA) [%] | melting point [°C] | Emax [1, 3] [%] | IC50 [1, 3] [nM]
CC(=O)Nc1ncc(S(=O)(=O)N2CCCC(c3cc(C(F)F)nc4ncnn34)C2)s1 (racemic) [Product 6] | 101 | 9.33 | < 5.00 | 39.4 | 266.14 |  | 
CC(=O)Nc1ncc(CN2CCCC(c3cc(C)nc4ncnn34)C2)s1 (racemic) [Product 11] |  |  | 7.56 | 113 | 246.95 | 100 | 6.17
CC(=O)Nc1ncc(CN2CCCC(c3cc(C(F)F)nc4ncnn34)C2)s1 (racemic) [Product 13] | 101 | 8.51 | 7.45 | 130 | 186.01 |  | 
CC(=O)Nc1ncc(CN2CCCC(c3cc(C(F)F)n4ccnc4n3)C2)s1 (racemic) [Product 24] | 102 | 31.6 | 6.32 | 109 | 232.44 |  | 
CC(=O)Nc1ncc(S(=O)(=O)N2CCOC(c3cc(C)nc4ncnn34)C2)s1 (racemic) [Product 28] | 103 | 9.12 | < 5.00 | 22 | 290.78 | 101 | 8.51
CC(=O)Nc1ncc(CN2CCCC(c3cc4cc[nH]c4nc3C)C2)s1 (racemic) [Product 74] | 101 | 6.31 | 7.87 | 102 | 276.23 |  | 
CC(=O)Nc1ncc(CN2CCC[C@H](c3ccnc4ncnn34)C2)s1 [Product 9] | 101 | 11.7 | 7.41 | 109 | 234.6 |  | 
CC(=O)Nc1ncc(CN2CCCC(c3cc(C(F)F)nc4nccn34)C2)s1 (stereo not drawn) [Product 14] | 102 | 8.71 | 7.15 | 108 | 226.06 |  | 
CC(=O)Nc1ncc(CN2CCC[C@@H](c3cc(C(F)F)n4ncnc4n3)C2)s1 [Product 25] | 103 | 13.5 | 6.34 | 113 | 182.53 |  | 
CC(=O)Nc1ncc(S(=O)(=O)N2CCOC(c3cc(C(F)(F)F)nc4ncnn34)C2)s1 (stereo not drawn) [Product 27] | 100 | 17 | < 5.00 | 19.5 | 255.12 |  | 
CC(=O)Nc1ncc(S(=O)(=O)N2CCO[C@@H](c3ccnc4ncnn34)C2)s1 [Product 31] | 103 | 15.8 | < 5.00 | 11.1 | 263.16 |  | 
CC(=O)Nc1ncc(S(=O)(=O)N2CCO[C@H](c3ccnc4ncnn34)C2)s1 [Product 32] | 102 | 14.5 | < 5.00 | 21.8 | 260.51 |  | 
CC(=O)Nc1ncc(S(=O)(=O)N2CCOC(c3cc(C(F)F)nc4ncnn34)C2)s1 (stereo not drawn) [Product 33] | 101 | 6.46 | < 5.00 | 15.7 | 264.85 |  | 
CC(=O)Nc1ncc(S(=O)(=O)N2CCNC(c3cc(C(F)F)nc4ncnn34)C2)s1 (stereo not drawn) [Product 41] | 102 | 6.17 | < 5.00 | 10.5 | 227.97 |  | 
CC(=O)Nc1ncc(S(=O)(=O)N2CCNC(c3cc(C(F)F)n4ncnc4n3)C2)s1 (stereo not drawn) [Product 43] | 93.1 | 1860 |  |  | 226.22 |  | 
CC(=O)Nc1ncc(CN2CCCC(Nc3cc(C)nc4ncnn34)C2)s1 (stereo not drawn) [Product 51] |  |  |  |  | 249.94 | 98.5 | 115
Cc1cc([C@H]2CN([C@H](C)c3ccc4c(c3)OCO4)CCN2)n2ncnc2n1 [Product 56] |  |  |  |  | 199.25 | 25.8 | > 10000
Cc1cc([C@H]2CN([C@@H](C)c3ccc4c(c3)OCO4)CCN2)n2ncnc2n1 [Product 57] |  |  |  |  | 161.31 | 93 | 617
Cc1cc(C2CN(CC(=O)N3CCCC3)CCO2)n2ncnc2n1 (stereo not drawn) [Product 59] |  |  |  |  | 127.35 | -1.34 | > 10000
CC(=O)Nc1ncc(S(=O)(=O)N2CCCC(C)(c3cc(C(F)F)nc4ncnn34)C2)s1 (stereo not drawn) [Product 60] | 98.7 | 1860 |  |  | 238.12 |  | 
CC(=O)Nc1ncc(CN2CCCC(C)(c3cc(C(F)F)n4ncnc4n3)C2)s1 (stereo not drawn) [Product 62] |  |  |  |  | 217.24 | 16.2 | > 10000
CC(=O)Nc1ncc(S(=O)(=O)N2CCC3(CC3)C(c3cc(C(F)F)nc4ncnn34)C2)s1 (stereo not drawn) [Product 63] | 93.8 | 692 |  |  | 266.56 |  | 
CC(=O)Nc1ncc(CN2CCC[C@@H](c3ccnc4ncnn34)C2)s1 [Product 65] |  |  |  |  | 236.16 | 99.2 | 123
CC(=O)Nc1ncc(CN2CCC(Cc3cnc4cc[nH]c4c3)C2)s1 (stereo not drawn) [Product 68] |  |  | 7.38 | 91.2 | 190.79 | 101 | 5.37
CC(=O)Nc1ncc(CN2CC[C@H](Cc3nccn4c(C)cnc34)C2)s1 [Product 104] |  |  | 7.21 | 91.5 | 189.54 | 100 | 1.48
CC(=O)Nc1ncc(CN2CC[C@H](Cc3cncc4nccn34)C2)s1 [Product 108] |  |  | 7.01 | 92.7 | 202.48 | 101 | 4.9
